Values quoted from earlier work in patent publication US6605304B1, “Silicate-containing powders providing controlled, sustained gas release” (Bernard Technologies, Inc., priority 1998, dated 2003).

How the values were obtained:
[1] = test system: mold spores, bacteria and other microbiological contaminants
[2] = test system: mice

SMILES | concentration that penetrates and destroys contaminants [1] | chromosomal aberrations or micronuclei in the bone marrow ([2]; mice, subchronic and acute oral administration) | mutagenic potential ([2]; mouse, in vivo, po)
[O][Cl+][O-] [chlorine dioxide] | below one | failed to induce any chromosomal aberrations or increased numbers of micronuclei | 
OCl [hypochlorite] |  |  | weak positive effect
